This is an account of results in patent US11712466B2, “Vaccine composition” (TOHOKU UNIVERSITY, priority 2017, dated 2023).

Entries after “also recorded” stand apart in the source; their conditions may differ. Ends that are not written are not given here.

The subject of assay [1] is pancreatic cancer cell line (K5). Kind of assay: Metastasis inhibitory effect in vivo, K5 injected through tail vein, lung metastatic lesion. Particulars: 100 μg, Alhydrogel, C57BL/6J mice, day 21 after K5 injection; KLH control 2 out of 5 mice with metastasis. Also noted: species or system mouse. Here is the method: 20 μg or 100 μg of KLH (control) and 20 μg or 100 μg of the MTG peptide vaccine were prepared with physiological saline so that the total amount was 100 μL, respectively, whereby KLH-mixed solutions were obtained. To each of the KLH-mixed solutions (100 μL), an equal amount of Alhydrogel (registered trademark) was added. The obtained mixture (200 μL) was intradermally (ID) administered to C57BL/6J male mice (n=5) aged 8 weeks, whereby initial immunization was carried out (0 day). Incidentally, in the intradermal administration, 200 μL was administered at a dose of 100 μL each to two sites. After 2 weeks from the administration (14 days), booster immunization was carried out by subcutaneously administering a mixture of each of the KLH-mixed solutions (100 μL) and an equal amount of Alhydrogel (registered trademark) to the mice. […] Further, at that time point, the blood was collected from each mouse, and the antibody titer of an antibody specific to the antigen peptide or the recombinant human VASH2 protein was measured by ELISA. The mice were sacrificed on day 21 after the injection of K5 (49 days), and the lung metastatic lesion was analyzed (FIG. 10). […]

The next assay relates to mTwist1. Briefly: Gene expression in excised tumor tissue by real-time PCR, mTwist1. It counts as in vivo, mouse. Particulars: tumor excised two weeks after implantation. Here is the method:
The mouse implanted with the tumor cells in Example 2 was sacrificed two weeks after implantation of the tumor cells, and a tumor was excised from the right axillary subcutaneous region. By using RNeasy Plus Kit (Qiagen, Inc.), extraction of the total RNA from the excised tumor and purification thereof were carried out. By using the obtained total RNA as a template, cDNA was synthesized by reverse transcription reaction. The cDNA was analyzed by performing real-time PCR using a mixed solution of the obtained cDNA and SYBR green (TAKARA BIO, Inc.).

Assay [2] relates to recombinant human VASH2 protein. Kind of assay: Antibody titer in blood of immunized mice by ELISA against recombinant VASH2 protein. The format is in vivo, mouse. Particulars: for production of an antibody specific to VASH2: Example 5: C57BL/6J mice. The text has this:
C57BL/6J male mice aged 8 weeks were purchased from Charles River Laboratories Japan, Inc. After the delivery, the mice were reared in an environment where the room temperature and the light and dark cycles were maintained, and were provided with feed and water ad libitum. As a candidate sequence leading to activation of helper T cells by MHC class II, two peptide sequences: MTGSAADTHR (SEQ ID NO: 4; hereinafter, a peptide composed of the amino acid sequence is referred to as “MTG peptide”) and RRRQASPPRR (SEQ ID NO: 5; hereinafter, a peptide composed of the amino acid sequence is referred to as “RRR peptide”), each of which is not common to VASH1 in the VASH2 sequence were selected (FIG. 1). With respect to these peptides, peptide vaccines using KLH as a carrier were constructed. Note that for the conjugation of each peptide with KLH, a glutaraldehyde method was used. When the amount of the peptide introduced into KLH was measured for each of the obtained peptide vaccines, the amount of MTG was 66 to 70 nmol/mg of the conjugate, and the amount of RRR was 62 to 76 nmol/mg of the conjugate. Subsequently, 5 μg of KLH (control) and 20 μg of each of the KLH-antigen complexes were prepared with physiological saline so that the total amount was 50 μL, respectively, whereby KLH-mixed solutions were obtained. To each of the KLH-mixed solutions (50 μL), an equal amount of complete Freund's adjuvant was added. The obtained mixture was subcutaneously administered to the mice, whereby initial immunization was carried out. After 2 weeks from the administration, booster immunization was carried out by subcutaneously administering a mixture of each of the KLH-mixed solutions (50 μL) and an equal amount of incomplete Freund's adjuvant to the mice. Further, after 2 weeks from the booster immunization (after a total of 4 weeks), an increase in the antibody titer in the blood of each of the immunized mice was verified by ELISA.
The measurement of the antibody titer by ELISA was carried out as follows. After 2 weeks from the booster immunization (after a total of 4 weeks), the blood was collected from the facial vein of each of the immunized mice, and the serum separated from the blood was subjected to ELISA. By using 50 mM carbonate buffer, peptide-conjugated BSA was prepared at 10 μg/mL, and further a recombinant VASH2 protein was prepared at 1 μg/mL, each of which was added at 50 μL/well, and the resultant was left to stand overnight at 4° C. After the solution in each well was removed, 5% skim milk was added at 150 μL/well. After the resultant was left to stand at room temperature for 2 hours, the solution was removed, and subsequently, a serum sample diluted by 20 to 62500 times with 5% skim milk was added at 50 μL/well, and the resultant was left to stand overnight at 4° C. Subsequently, washing was carried out with PBS (200 μL/well×6 times), and thereafter, a secondary antibody (HRP-conjugated anti-Mouse IgG) diluted by 1000 times with 5% skim milk was added at 50 μL/well. After the resultant was left to stand at room temperature for 3 hours, washing was carried out with PBS (200 μL/well×3 times). Thereafter, tetramethylbenzidine (TMB) was added at 50 μL/well, and the resultant was left to stand at room temperature under light shielding. After 30 minutes, the reaction was stopped by adding 0.5 N H2SO4 at 50 μL/well, and an absorbance (450 nm) was measured using a microplate reader.
A general note: In an ELISA, binding on a coated surface is turned into a signal by an enzyme label.

The next assay relates to KPC mouse. Briefly: Life-extending effect in KPC mouse, spontaneous pancreatic cancer model. It counts as in vivo. The conditions noted are these: KPC mice n=8, 100 μg with Alhydrogel every two weeks; all KLH controls (n=7) died before 300 days. Here is the method:
To a KPC mouse (aged 8 weeks at the initial immunization) that is a spontaneous pancreatic cancer model, 100 μg of the MTG peptide vaccine was administered together with Alhydrogel (registered trademark) every two weeks, and the survival rate thereof was confirmed (n=8). A KPC mouse to which 100 μg of KLH was administered according to the same schedule was used as a control (n=7) (FIG. 13).

With “MTG peptide vaccine: MTG peptide MTGSAADTHR (SEQ ID NO: 4) conjugated with KLH as carrier by a glutaraldehyde method (also: conjugated with KLH by glutaraldehyde)”, in assay [1], the “lung metastasis of the pancreatic cancer cells K5” value is listed as “not confirmed in all four individuals”. Further, the “expression of mTwist1 (epithelial-mesenchymal transition marker) in tumor tissue” value with mTwist1 was “dose-dependent expression inhibitory effect; also recorded: significantly inhibited depending on the dose”. In assay [2] (Example 1: C57BL/6J mice, KLH-antigen complex s.c., Freund's adjuvant, serum 2 weeks after booster (total 4 weeks)), the “antibody titer against the recombinant human VASH2 protein” value is “a significant increase in the antibody titer was confirmed; also recorded: a significant increase in the antibody titer was observed”. Moreover, the “production of an antibody specific to VASH2” value in assay [2] (20 or 100 μg, Alhydrogel adjuvant, day 28) is “promoted the production of an antibody specific to VASH2”; in assay [2] (20 or 100 μg, Freund's adjuvant, day 28), “promoted the production of an antibody specific to VASH2”. The “production of an antibody specific to the VASH2 recombinant protein” value in assay [2] (Example 6: C57BL/6J mice, 20 or 100 μg, Alhydrogel, day 28) is on record as “promotes the production of an antibody”. In assay [2] (Example 8: C57BL/6Jx129SVJ mice, 100 μg, Alhydrogel, day 28), the “induced antibody binding to the VASH2 recombinant protein” value is given as “induced an antibody that binds to both”. Moreover, the “mice survived over 300 days after birth” value with KPC mouse is recorded as “at least 2 mice”.
